Data published in patent US4906565A, “Method for the selective detection of microbial nucleotides” (Minnesota Mining and Manufacturing Company, priority 1986, dated 1990).

Tests used:
Assay type in all cases: biochemical
firefly luciferase [1] = biological target: T1, firefly luciferase (Photinus pyralis, UniProt P08659); test: Effect of inhibitor on the bioluminescent assay of ATP
T1 construct: purchased Lumac/3M Lumit PM
Description: Assay: from each sample triplicate 100 μl aliquots were taken. In those aliquots ATP was measured as described.
Assay: from each sample triplicate 100 μl aliquots were taken. ATP in those aliquots was measured as described.
Assay: From each sample triplicate 100 μl aliquots were taken and ATP was measured as described.
(§1) Protocol: Eight samples were prepared using materials described above and previously, as shown in TABLE 7-1 and incubated for various periods of time (i.e., 0, 5, 10 and […]) before aliquots were taken and assayed as described.
(§2) Protocol: Increasing concentrations of hexokinase, with and without PCMPSA were prepared according to TABLE 8-1 using materials described above and previously.

hexokinase = test: Inhibition of hexokinase by PCMPSA, bioluminescent ATP assay; conditions: PCMPSA 1.0 mM
Description: as §1, §2

acetate kinase = biological target: T2, acetate kinase (Escherichia coli, UniProt P0A6A3); test: Inhibition of acetate kinase by PCMPSA; conditions: PCMPSA 0.5 mM
T2 construct: purchased Boehringer Mannheim
T2 sequence (P0A6A3 1-400): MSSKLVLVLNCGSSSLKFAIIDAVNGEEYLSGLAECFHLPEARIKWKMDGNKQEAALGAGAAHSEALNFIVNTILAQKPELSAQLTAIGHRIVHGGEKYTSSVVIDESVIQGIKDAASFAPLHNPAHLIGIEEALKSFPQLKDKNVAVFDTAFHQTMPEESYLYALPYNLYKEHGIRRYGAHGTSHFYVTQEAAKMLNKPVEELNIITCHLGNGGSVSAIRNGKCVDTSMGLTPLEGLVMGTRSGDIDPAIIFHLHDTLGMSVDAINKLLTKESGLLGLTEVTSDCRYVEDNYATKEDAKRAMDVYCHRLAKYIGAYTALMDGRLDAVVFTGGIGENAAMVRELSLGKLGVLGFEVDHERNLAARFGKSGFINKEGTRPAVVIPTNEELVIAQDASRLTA
Description: Acetate kinase was added to initiate enzyme activity. […] ATP in those aliquots was assayed as described.

glycerokinase = test: Inhibition of glycerokinase by PCMPSA in milk / orange juice samples; conditions: PCMPSA 0.5 mM; for % Control: control = same without glycerol; for RLU: milk/FRA, ATP added in SRA, 15 seconds
Description: Protocol: Samples were prepared containing: 1000 μl milk (local distributor, half-cream, sterilized); 800 μl FRA, 200 μl of a commercially available first releasing agent which is prepared in buffer for use with samples such as fruit juices (F-NRS, Lumac/3M); and 2.45 mM MgSO4. Glycerol, if present, was at a final concentration of 1.47 mM. ATP (10 mg/ml) was added in SRA to begin each assay, and PCMPSA if present, was also in that SRA aliquot in an amount sufficient to yield a final concentration of 0.5 mM.
(§3) To begin the assay, 100 μl of SRA/ATP ±PCMPSA was added to 50 μl of the appropriate sample. After 15 seconds (the period normally allowed for microbial nucleotide extraction using SRA) 100 μl Luciferase-luciferin solution was added and ATP was measured as described earlier.
(§4) Protocol: Samples with orange juice were prepared with 500 μl orange juice (Riedel, Netherlands, no preservatives, pasteurized), 500 μl buffered FRA, 3 mM glycerol, and with or without 0.5 mM PCMPSA. These were incubated over 0, 5, 10 and 20 minutes at four different glycerokinase concentrations.
(§5) Samples with milk were prepared similarly, but using 500 μl raw milk (fresh, local farmer) and 500 μl FRA in place of buffered FRA.

firefly luciferase [2] = biological target: T1, firefly luciferase; test: Effect of inhibitor on the bioluminescent assay of ATP; remark: listed apart in the source
[3] = ATP inactivation by glycerokinase or apyrase in milk / orange juice samples; conditions: apyrase 0.096 U/mL; raw milk:FRA 500:500 μl
Description: Protocol: Four samples were prepared as shown in TABLE 11-1 using materials described above and earlier, and aliquots taken at 0, 2.5, 5, 10 and 20 minutes. […]
as §3, §4, §5

[4] = PCMPSA 1.0 mM alone, no hexokinase, buffer
[5] = PCMPSA 1.0 mM alone, no hexokinase, in SRA
[6] = acetate kinase 1.7 U/ml, magnesium acetate 3 mM, FRA
[7] = glycerokinase 0.42 U/ml, glycerol 1.47 mM
[8] = glycerokinase 1.04 U/ml, glycerol 1.47 mM
[9] = glycerokinase 2.06 U/ml, glycerol 1.47 mM
[10] = orange juice, glycerokinase 0.85 U/ml
[11] = orange juice, glycerokinase 2.12 U/ml
[12] = orange juice, glycerokinase 4.25 U/ml
[13] = raw milk, glycerokinase 0.85 U/ml
[14] = raw milk, glycerokinase 2.12 U/ml
[15] = raw milk, glycerokinase 4.25 U/ml

T1 sequence (P08659 whole entry): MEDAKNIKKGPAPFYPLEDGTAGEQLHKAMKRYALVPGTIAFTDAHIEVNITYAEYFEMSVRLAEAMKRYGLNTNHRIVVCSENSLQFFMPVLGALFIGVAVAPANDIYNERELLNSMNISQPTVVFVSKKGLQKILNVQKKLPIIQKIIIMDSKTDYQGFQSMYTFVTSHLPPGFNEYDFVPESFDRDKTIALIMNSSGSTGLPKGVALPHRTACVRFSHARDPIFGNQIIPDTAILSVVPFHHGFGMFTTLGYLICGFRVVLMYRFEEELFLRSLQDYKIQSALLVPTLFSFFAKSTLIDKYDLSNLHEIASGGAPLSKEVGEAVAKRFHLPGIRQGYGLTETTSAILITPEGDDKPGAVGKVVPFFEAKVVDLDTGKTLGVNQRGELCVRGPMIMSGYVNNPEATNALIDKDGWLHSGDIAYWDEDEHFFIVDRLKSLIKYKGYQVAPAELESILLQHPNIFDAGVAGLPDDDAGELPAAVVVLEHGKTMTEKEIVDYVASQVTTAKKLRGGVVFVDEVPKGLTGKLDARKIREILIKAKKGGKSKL

**Q.** With `O=S(=O)(O)c1cc[c]([Hg][Cl])cc1` [PCMPSA, p-chloromercuriphenylsulfonic acid] as the molecule, how does the “RLU 10 min.” value (firefly luciferase [1]; [4]) read?
**A.** 29569 RLU

**Q.** And the “RLU 15 min.” value (firefly luciferase [1]; [4])?
**A.** 29742 RLU

**Q.** What about the “RLU 0 min.” value (firefly luciferase [1]; [5]) of the same molecule?
**A.** 26457 RLU

**Q.** And the “interference with the bioluminescent assay (conclusion in words)” value (firefly luciferase [1]; PCMPSA alone, sample 5, buffer)?
**A.** does not substantially interfere

**Q.** What about the “inhibition of hexokinase (conclusion in words)” value (hexokinase; buffer) of the same molecule?
**A.** at least partly inhibited

**Q.** And the “RLU 5 min.” value (hexokinase; hexokinase 0.14 U/ml, buffer)?
**A.** 25884 RLU

**Q.** And the “RLU 10 min.” value (hexokinase; hexokinase 0.14 U/ml, buffer)?
**A.** 23717 RLU

**Q.** What about the “RLU 15 min.” value (hexokinase; hexokinase 0.14 U/ml, buffer) of the same molecule?
**A.** 24771 RLU

**Q.** What about the “RLU 5 min.” value (hexokinase; hexokinase 0.14 U, in SRA) of the same molecule?
**A.** 15397 RLU

**Q.** And the “RLU 10 min.” value (hexokinase; hexokinase 0.14 U, in SRA)?
**A.** 15221 RLU

**Q.** What about the “RLU 5 min.” value (hexokinase; hexokinase 0.28 U/ml, buffer) of the same molecule?
**A.** 19116 RLU

**Q.** What about the “RLU 10 min.” value (hexokinase; hexokinase 0.28 U/ml, buffer) of the same molecule?
**A.** 18228 RLU

**Q.** And the “RLU 15 min.” value (hexokinase; hexokinase 0.28 U/ml, buffer)?
**A.** 16919 RLU

**Q.** And the “RLU 5 min.” value (hexokinase; hexokinase 0.28 U, in SRA)?
**A.** 11674 RLU

**Q.** And the “RLU 10 min.” value (hexokinase; hexokinase 0.28 U, in SRA)?
**A.** 12473 RLU

**Q.** What about the “RLU 5 min.” value (hexokinase; hexokinase 0.70 U/ml, buffer) of the same molecule?
**A.** 13353 RLU

**Q.** And the “RLU 10 min.” value (hexokinase; hexokinase 0.70 U/ml, buffer)?
**A.** 11760 RLU

**Q.** And the “RLU 15 min.” value (hexokinase; hexokinase 0.70 U/ml, buffer)?
**A.** 9375 RLU

**Q.** And the “RLU 5 min.” value (hexokinase; hexokinase 0.70 U, in SRA)?
**A.** 4212 RLU

**Q.** And the “RLU 10 min.” value (hexokinase; hexokinase 0.70 U, in SRA)?
**A.** 3011 RLU

**Q.** What about the “inhibition of hexokinase (conclusion in words)” value (hexokinase; in the presence of SRA) of the same molecule?
**A.** sufficiently inhibited

**Q.** What about the “inhibition of acetate kinase (conclusion in words)” value (acetate kinase) of the same molecule?
**A.** fairly effective

**Q.** What about the “RLU 0 min.” value (acetate kinase; [6]) of the same molecule?
**A.** 4878 RLU

**Q.** And the “RLU 5 min.” value (acetate kinase; [6])?
**A.** 2911 RLU

**Q.** What about the “RLU 10 min.” value (acetate kinase; [6]) of the same molecule?
**A.** 2263 RLU

**Q.** And the “RLU 15 min.” value (acetate kinase; [6])?
**A.** 2362 RLU

**Q.** And the “% Control” value (glycerokinase; [7])?
**A.** 91%

**Q.** And the RLU (glycerokinase; [7])?
**A.** 26407 RLU

**Q.** And the RLU (glycerokinase; glycerokinase 0.42 U/ml, no glycerol (control))?
**A.** 28957 RLU

**Q.** What about the “% Control” value (glycerokinase; [8]) of the same molecule?
**A.** 78%

**Q.** What about the RLU (glycerokinase; [8]) of the same molecule?
**A.** 17213 RLU

**Q.** And the RLU (glycerokinase; glycerokinase 1.04 U/ml, no glycerol (control))?
**A.** 21901 RLU

**Q.** What about the “% Control” value (glycerokinase; [9]) of the same molecule?
**A.** 58%

**Q.** What about the RLU (glycerokinase; [9]) of the same molecule?
**A.** 6404 RLU

**Q.** What about the RLU (glycerokinase; glycerokinase 2.06 U/ml, no glycerol (control)) of the same molecule?
**A.** 15129 RLU

**Q.** And the “inhibition of glycerokinase (conclusion in words)” value (glycerokinase; orange juice and milk, glycerokinase up to 4.25 U/ml)?
**A.** sufficient to inhibit even the highest concentrations of enzyme used

**Q.** What about the “RLU after 0 min” value (glycerokinase; [10]) of the same molecule?
**A.** 142369 RLU

**Q.** And the “RLU after 5 min” value (glycerokinase; [10])?
**A.** 145464 RLU

**Q.** What about the “RLU after 10 min” value (glycerokinase; [10]) of the same molecule?
**A.** 150927 RLU

**Q.** And the “RLU after 20 min” value (glycerokinase; [10])?
**A.** 155082 RLU

**Q.** What about the “RLU after 0 min” value (glycerokinase; [11]) of the same molecule?
**A.** 152487 RLU

**Q.** And the “RLU after 5 min” value (glycerokinase; [11])?
**A.** 143354 RLU

**Q.** And the “RLU after 10 min” value (glycerokinase; [11])?
**A.** 132269 RLU

**Q.** What about the “RLU after 20 min” value (glycerokinase; [11]) of the same molecule?
**A.** 151899 RLU

**Q.** And the “RLU after 0 min” value (glycerokinase; [12])?
**A.** 116232 RLU

**Q.** And the “RLU after 5 min” value (glycerokinase; [12])?
**A.** 131999 RLU

**Q.** And the “RLU after 10 min” value (glycerokinase; [12])?
**A.** 123137 RLU

**Q.** And the “RLU after 20 min” value (glycerokinase; [12])?
**A.** 125784 RLU

**Q.** What about the “RLU after 0 min” value (glycerokinase; [13]) of the same molecule?
**A.** 1382 RLU

**Q.** What about the “RLU after 5 min” value (glycerokinase; [13]) of the same molecule?
**A.** 1494 RLU

**Q.** What about the “RLU after 10 min” value (glycerokinase; [13]) of the same molecule?
**A.** 1348 RLU

**Q.** And the “RLU after 20 min” value (glycerokinase; [13])?
**A.** 1280 RLU

**Q.** What about the “RLU after 0 min” value (glycerokinase; [14]) of the same molecule?
**A.** 829 RLU

**Q.** And the “RLU after 5 min” value (glycerokinase; [14])?
**A.** 1340 RLU

**Q.** What about the “RLU after 10 min” value (glycerokinase; [14]) of the same molecule?
**A.** 1342 RLU

**Q.** And the “RLU after 20 min” value (glycerokinase; [14])?
**A.** 1233 RLU

**Q.** What about the “RLU after 0 min” value (glycerokinase; [15]) of the same molecule?
**A.** 1173 RLU

**Q.** And the “RLU after 5 min” value (glycerokinase; [15])?
**A.** 1314 RLU

**Q.** What about the “RLU after 10 min” value (glycerokinase; [15]) of the same molecule?
**A.** 1374 RLU

**Q.** What about the “RLU after 20 min” value (glycerokinase; [15]) of the same molecule?
**A.** 1028 RLU

**Q.** And the “RLU 0 min.” value (firefly luciferase [2]; [4])?
**A.** 29494 RLU

**Q.** What about the “RLU 10 min.” value (firefly luciferase [2]; [5]) of the same molecule?
**A.** 25284 RLU

**Q.** And the “interference with the bioluminescent assay of ATP (conclusion in words)” value (firefly luciferase [2]; PCMPSA alone, in SRA)?
**A.** only very slight interference, if at all

**Q.** With apyrase as the molecule, how does the “RLU after 0 min” value [3] read?
**A.** 64594 RLU

**Q.** What about the “RLU after 2.5 min.” value [3] of the same molecule?
**A.** 3272 RLU

**Q.** What about the “RLU after 5 min” value [3] of the same molecule?
**A.** 1130 RLU

**Q.** What about the “RLU after 20 min” value [3] of the same molecule?
**A.** 243 RLU
